Molecular target: T1, S.pneumoniae FabK, enoyl-ACP reductase (Streptococcus pneumoniae, UniProt Q9FBC5, T318A)
T1 construct: […]; made in house; host or cells: E. coli BL21 (DE3) harboring tRNA vector pRR692; plasmid pET24bSpfabK
Experiment: FabK enzyme activity assay (NADH oxidation at 340 nm, crotonoyl-ACP reduction)
Format: biochemical
Settings: NH4+ at 100 mM; greatest activation among monovalent cations
Procedure: FabK catalyses the reduction of enoyl-ACPs with the concommitant oxidation of NADH. Crotonoyl-ACP can be prepared as described below. The reduction of crotonoyl-ACP to butyryl-ACP can be monitored by following the change in absorbance at 340 nm as NADH is oxidised.
Assays were carried out in Costar 3696 half-area plates in a final assay volume of 150 ul on a Spectramax platereader. Substrates, NADH and crotonoyl ACP, were incubated with FabK enzyme in 100 mM N-[2-acetamido]-2 iminodiacetic acid (ADA), pH 6.5, 100 mM NH4Cl, 4% glycerol at 30° C. and the reaction monitored at 340 nm. This assaying can also be performed using crotonyl CoA, NADPH or an NADH analogue as a substrate.

T1 sequence (Q9FBC5 whole entry T318A): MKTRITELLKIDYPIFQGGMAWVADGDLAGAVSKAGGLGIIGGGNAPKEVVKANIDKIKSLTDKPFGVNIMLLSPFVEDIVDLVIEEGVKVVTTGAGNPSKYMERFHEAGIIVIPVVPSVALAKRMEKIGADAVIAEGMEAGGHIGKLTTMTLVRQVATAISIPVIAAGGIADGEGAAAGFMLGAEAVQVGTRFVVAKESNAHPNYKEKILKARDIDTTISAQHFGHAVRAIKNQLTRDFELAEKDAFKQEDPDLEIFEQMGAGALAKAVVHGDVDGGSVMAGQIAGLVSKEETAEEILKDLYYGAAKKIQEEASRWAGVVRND

Which “activation of the FabK reaction over the reaction with no monovalent cations” value does the source give for `Cl.N` [NH4+, NH4^+] here?
The value was “about 300 fold”.

— patent US6821746B2, “Methods of screening for FabK antagonists and agonists” (priority 2000, dated 2004)
